A word on the IC50: it is the concentration at which inhibition is half-maximal.

≈ marks a conversion by molar mass, not a printed value. Where two headings read alike, the source gives them in different places.

The text below walks through data of PMC7412065, “In Vitro Antimicrobial and Antiproliferative Activities of the Root Bark Extract and Isolated Chemical Constituents of Zanthoxylum paracanthum Kokwaro (Rutaceae)” (Plants, 2020).

The test system of one data set is Streptococcus pyogenes. More on the design: method as in PMID 25546028. The conditions noted are these: cited from earlier work.
The subject of data set [1] is human breast cancer cell line (HCC 1395). Kind of data set: MTT antiproliferative assay, breast cancer cells. Format: cell-based. The conditions noted are these: for IC50: Homo sapiens; for Selectivity Indexes HCC 1395: SI = CC50 (Vero E6) / IC50 (HCC 1395). In general terms: Tetrazolium dyes change colour on reduction, which living cells bring about.
Data set [2] can be described thus: MTT cytotoxicity assay, normal cell line. Particulars: African green monkey.
The next data set deals with Clostridium sporogenes. More on the design: method as in PMID 25546028. The conditions noted are these: cited from earlier work.
For data set [3], the system named is Escherichia coli (ATCC 25922). The data set is described as follows: Broth dilution MIC against E. coli. Format: cell-based. The conditions noted are these: for MIC: Escherichia coli, read-out: Antimicrobial minimal inhibition concentration (MIC), E. coli. A general note: In broth dilution the organism is exposed to a series of concentrations in liquid medium.
The subject of data set [4] is human prostate cancer cell line (DU 145). The data set is described as follows: MTT antiproliferative assay, prostate cancer cells. Format: cell-based. The conditions noted are these: for IC50: Homo sapiens; for Selectivity Indexes DU 145: SI = CC50 (Vero E6) / IC50 (DU 145).
Data set [5] concerns methicillin resistant Staphylococcus aureus (MRSA), un-typed isolate. Kind of data set: Broth dilution MIC against MRSA. Format: cell-based. The conditions noted are these: for MIC: Staphylococcus aureus, MRSA, read-out: Antimicrobial minimal inhibition concentration (MIC), MRSA; for MIC / Antimicrobial minimal inhibition concentration (MIC), MRSA: 24 h; for Growth inhibition of MRSA (in words): up to 1000 µg/mL.

In data set [6] the test system is Candida albicans (ATCC 10231). The data set is described as follows: Broth dilution MIC against C. albicans. Format: cell-based. Particulars: for MIC: Candida albicans, read-out: Antimicrobial minimal inhibition concentration (MIC), C. albicans; for Growth inhibition of C. albicans (in words): up to 1000 µg/mL.
Data set [7] concerns Staphylococcus aureus (ATCC 29213). The data set is described as follows: Broth dilution MIC against S. aureus. Format: cell-based. The conditions noted are these: for MIC: Staphylococcus aureus, ATCC29213, 24 h, read-out: Antimicrobial minimal inhibition concentration (MIC), S. aureus.
A short description of the next data set: in vitro. The conditions noted are these: African green monkey.
The subject of a further data set is E. coli. Further details: method as in PMID 22864735. The conditions noted are these: compound isolated from Zanthoxylum rhetsa roots; cited from earlier work.
Another data set concerns MRSA. More on the design: method as in PMID 22864735. Particulars: compound isolated from Zanthoxylum rhetsa roots; cited from earlier work.
[8] abbreviates: HCC1395, MTT assay, Mean ± SEM, triplicate, read-out: IC50 Cancerous Cell Lines HCC 1395.
[9] abbreviates: Vero E6 cells (normal cell line).
Setting [10] is: ATCC25922, ATCC 25922, broth two-fold dilution, 37 °C, 24 h.
Setting [11] is: DU-145, MTT assay, Mean ± SEM, triplicate, read-out: IC50 Cancerous Cell Lines DU 145.
Setting [12] is: ATCC10231, ATCC 10231, broth two-fold dilution, 30 °C, 72 h.
The mark [13] stands for this setting: ATCC 29213, broth two-fold dilution, 37 °C, 24 h.

Consider `COc1ccc2c(c1OC)c(=O)n(C)c1c3cc4c(cc3ccc21)OCO4` [8-oxochelerythrine (8), 8-oxochelerythrine], for which the “MIC against Streptococcus pyogenes” value in the data set on Streptococcus pyogenes was 3.64 µM (≈ 1.32 µg/mL). For the same compound, the half-maximal inhibitory concentration (IC50) in data set [1] (setting [8]) worked out at 14.1 ± 0.3 µg/mL (≈ 38.8 µM); in data set [4] (setting [11]) it was 63.4 ± 1.1 µg/mL (≈ 175 µM). In data set [1], the “Selectivity Indexes HCC 1395” value is given as 9.60. This compound also showed a CC50 at 48 h in [2] (setting [9]) of 135.32 ± 0.12 µg/mL (≈ 372 µM). Moreover, in the data set on Clostridium sporogenes, the “MIC against Clostridium sporogenes” value is 0.91 µM (≈ 0.331 µg/mL). Further, the MIC came out at 3.91 µg/mL (≈ 10.8 µM) in data set [3] (setting [10]); 62.5 µg/mL (≈ 172 µM) in data set [5] (broth two-fold dilution, 37 °C); 15.6 µg/mL (≈ 43 µM) in data set [6] (setting [12]). Moreover, in data set [4], the “Selectivity Indexes DU 145” value turned out to be 2.13. The “Antimicrobial minimal inhibition concentration (MIC), MRSA” value in [5] (broth two-fold dilution, 37 °C) turned out to be 62.50 µg/mL.
For the compound Omacilin [reference compound], the “Antimicrobial minimal inhibition concentration (MIC), S. aureus” value in data set [7] (setting [13]) is 0.49 µg/mL. Besides, the “Antimicrobial minimal inhibition concentration (MIC), E. coli” value in data set [3] (ATCC 25922, broth two-fold dilution, 37 °C, 24 h) came out at 0.98 µg/mL. In addition, in data set [5] (broth two-fold dilution, 37 °C), the “Antimicrobial minimal inhibition concentration (MIC), MRSA” value came to 0.98 µg/mL.
Consider `COc1cccc2c1C(=O)c1c(O)c3c(c(O)c1C2=O)C[C@@](O)(C(=O)CO)C[C@@H]3O[C@H]1C[C@H](N)[C@H](O)[C@H](C)O1` [Doxorubicin, reference compound], for which the values for the half-maximal inhibitory concentration (IC50) in data set [1] (setting [8]) and in data set [4] (setting [11]) were 0.21 ± 0.2 µg/mL (≈ 0.386 µM) and 0.59 ± 0.01 µg/mL (≈ 1.09 µM), respectively. In addition, the “Selectivity Indexes HCC 1395” value in data set [1] worked out at 1.41. In addition, the CC50 at 48 h in the data set “in vitro” came to 0.3 ± 0.12 µg/mL (≈ 0.552 µM). Also, the “Selectivity Indexes DU 145” value in data set [4] came to 0.51.
Regarding `CCCCCCCCCCCCCC(=O)O` [myristic acid (1), myristic acid], the half-maximal inhibitory concentration (IC50) in data set [1] (setting [8]) was 57.7 ± 1.2 µg/mL (≈ 253 µM); in data set [4] (setting [11]) it was 80.24 ± 0.12 µg/mL (≈ 351 µM). Also, the “Selectivity Indexes HCC 1395” value in data set [1] was 1.12. Further, the CC50 at 48 h in [2] (setting [9]) worked out at 64.86 ± 0.51 µg/mL (≈ 284 µM). Besides, the MIC was above 1000 µg/mL in [7] (setting [13]); above 1000 µg/mL in data set [3] (setting [10]); above 1000 µg/mL in data set [5] (broth two-fold dilution, 37 °C); above 1000 µg/mL in data set [6] (setting [12]). The “Selectivity Indexes DU 145” value in data set [4] is given as 0.81.
Regarding `OC(Cn1cncn1)(Cn1cncn1)c1ccc(F)cc1F` [Fluconazole, reference compound], the MIC in [6] (setting [12]) is 1.95 µg/mL (≈ 6.37 µM).
Regarding `CC[C@H](/C=C/[C@@H](C)[C@H]1CC[C@H]2[C@@H]3CC=C4C[C@@H](O)CC[C@]4(C)[C@H]3CC[C@]12C)C(C)C` [stigmasterol (2), stigmasterol], the IC50 turned out to be 0.42 ± 0.1 µg/mL (≈ 1.02 µM) in data set [1] (HCC1395, read-out: IC50 Cancerous Cell Lines HCC 1395) and 140.5 ± 1.27 µg/mL (≈ 340 µM) in data set [4] (DU-145, read-out: IC50 Cancerous Cell Lines DU 145). In [1], the “Selectivity Indexes HCC 1395” value is reported as 294.94. Further, the CC50 at 48 h in [2] turned out to be 124 µg/mL (≈ 300 µM). The MIC is 62.5 µg/mL (≈ 151 µM) in data set [7]; 15.6 µg/mL (≈ 37.9 µM) in [3] (ATCC25922, 24 h); above 1000 µg/mL in [5]; above 1000 µg/mL in data set [6] (ATCC10231, 72 h). The “Selectivity Indexes DU 145” value in data set [4] was determined as 0.88. In [5], the “Growth inhibition of MRSA (in words)” value is “did not inhibit the growth”. Further, the “Growth inhibition of C. albicans (in words)” value in data set [6] is given as “did not inhibit the growth”.
As for `COc1ccc2c(c1OC)C(CC(C)=O)N(C)c1c-2ccc2cc3c(cc12)OCO3` (centres unmarked) [8-acetonyldihydrochelerythrine (4), 8-acetonyldihydrochelerythrine], the IC50 in data set [1] (setting [8]) is 9.99 ± 0.6 µg/mL (≈ 24.6 µM); in [4] (setting [11]) it was 66.82 ± 0.58 µg/mL (≈ 165 µM). Besides, the “Selectivity Indexes HCC 1395” value in [1] was 4.79. Also, in the data set on E. coli, the “MIC against E. coli” value was 16 µg/mL (≈ 39.5 µM). Further, the CC50 at 48 h in [2] came out at 47.8 ± 1.15 µg/mL (≈ 118 µM). Also, the MIC in data set [7] (setting [13]) was found to be 15.6 µg/mL (≈ 38.5 µM); in data set [3] (setting [10]), 15.6 µg/mL (≈ 38.5 µM); in [5], 31.2 µg/mL (≈ 77.1 µM); in [6] (setting [12]), 62.5 µg/mL (≈ 154 µM). Besides, the “Selectivity Indexes DU 145” value in data set [4] is 0.72. For the same compound, the “MIC against MRSA” value in the data set on MRSA was 8 µg/mL (≈ 19.7 µM).
As to `O=c1ccc2nccc3c4ccccc4n1c23` [canthin-6-one (7), canthin-6-one], the IC50 in data set [1] (setting [8]) amounted to 8.12 ± 0.6 µg/mL (≈ 36.9 µM); in data set [4] (setting [11]) it was 9.43 ± 0.01 µg/mL (≈ 42.8 µM). The “Selectivity Indexes HCC 1395” value in [1] is reported as 5.15. Moreover, the CC50 at 48 h in data set [2] (setting [9]) was found to be 41.8 ± 0.64 µg/mL (≈ 190 µM). Besides, the “Antimicrobial minimal inhibition concentration (MIC), S. aureus” value in data set [7] (setting [13]) is given as 0.49 µg/mL. Besides, the MIC in [7] (setting [13]) came out at 0.48 µg/mL (≈ 2.18 µM); in data set [3] (setting [10]), 1.95 µg/mL (≈ 8.85 µM); in [5] (broth two-fold dilution, 37 °C), 0.97 µg/mL (≈ 4.4 µM); in [6] (setting [12]) it was 3.91 µg/mL (≈ 17.8 µM). Besides, in data set [4], the “Selectivity Indexes DU 145” value came to 4.43. Also, the “Antimicrobial minimal inhibition concentration (MIC), MRSA” value in [5] (broth two-fold dilution, 37 °C) worked out at 0.98 µg/mL.
Take `COc1ccc2c(c1)c1ccnc3ccc(=O)n2c31` [10-methoxycanthin-6-one (6), 10-methoxycanthin-6-one]: the figures for the IC50 in data set [1] (setting [8]) and in data set [4] (setting [11]) were 14.7 ± 0.5 µg/mL (≈ 58.7 µM) and 1.58 µg/mL (≈ 6.31 µM), respectively. The “Selectivity Indexes HCC 1395” value in data set [1] is recorded as 3.67. This compound returned a CC50 at 48 h in [2] (setting [9]) of 53.95 ± 0.38 µg/mL (≈ 216 µM). In addition, the MIC in data set [7] (setting [13]) worked out at 1.95 µg/mL (≈ 7.79 µM); in data set [3] (setting [10]), 3.91 µg/mL (≈ 15.6 µM); in data set [5] (broth two-fold dilution, 37 °C), 3.91 µg/mL (≈ 15.6 µM); in [6] (setting [12]) it was 7.81 µg/mL (≈ 31.2 µM). Also, the “Selectivity Indexes DU 145” value in data set [4] is given as 34.15.
For the compound `c1cc2c(cc1[C@H]1OC[C@H]3[C@@H]1CO[C@@H]3c1ccc3c(c1)OCO3)OCO2` [sesamin (3), sesamin], the IC50 in data set [1] (setting [8]) was 3.39 ± 1 µg/mL (≈ 9.57 µM); in data set [4] (setting [11]) it was 115.06 ± 0.03 µg/mL (≈ 325 µM). For the same compound, in data set [1], the “Selectivity Indexes HCC 1395” value stood at 39.97. The compound further gave a CC50 at 48 h in the data set “in vitro” of 135.31 ± 0.12 µg/mL (≈ 382 µM). The MIC in [7] (setting [13]) was 500 µg/mL (≈ 1410 µM); in data set [3] (setting [10]), above 1000 µg/mL; in data set [5] (broth two-fold dilution, 37 °C), above 1000 µg/mL; in data set [6] (setting [12]), above 1000 µg/mL. Further, in [3] (up to 1000 µg/mL), the “Growth inhibition of E. coli (in words)” value is “no activity”. In data set [4], the “Selectivity Indexes DU 145” value is listed as 1.18. For the same compound, the “Growth inhibition of MRSA (in words)” value in [5] is listed as “no activity”. The “Growth inhibition of C. albicans (in words)” value in data set [6] is reported as “no activity”.
